# From patent US20170253601A1, “Substituted Pyrrolidine Compounds” (EPIZYME, INC., priority 2014, published 2017)
# Molecular target: T1, SMYD2 (Homo sapiens, UniProt Q9NRG4)
# T1 construct: Full length SMYD2 (NP 064582.2) was cloned; His6 (N, cleaved yes); FLAG (N); made in house; host or cells: Sf9 insect cells
# Assay: SMYD2 Biochemical Assay (3H-SAM, biotinylated peptide substrate, Flashplate)
# Details: IC50 values are an average of n = 1 to n = 50; read-out: SMYD2 Biochem IC50 (μM)*
# Outline: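 Full-length His/FLAG-tagged SMYD2 expressed in Sf9 cells with tag cleaved, 1.5 nM, pre-incubated 30 min at room temperature with compound, then 10 nM 3H-SAM and 60 nM biotinylated peptide added. Buffer 20 mM Bicine pH 7.6, 1 mM TCEP, 0.005% BSG, 0.002% Tween20, 2% DMSO. Stopped with 600 uM cold SAM; 3H-peptide captured on streptavidin Flashplate; IC50 by curve fit.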
# T1 sequence (Q9NRG4 whole entry): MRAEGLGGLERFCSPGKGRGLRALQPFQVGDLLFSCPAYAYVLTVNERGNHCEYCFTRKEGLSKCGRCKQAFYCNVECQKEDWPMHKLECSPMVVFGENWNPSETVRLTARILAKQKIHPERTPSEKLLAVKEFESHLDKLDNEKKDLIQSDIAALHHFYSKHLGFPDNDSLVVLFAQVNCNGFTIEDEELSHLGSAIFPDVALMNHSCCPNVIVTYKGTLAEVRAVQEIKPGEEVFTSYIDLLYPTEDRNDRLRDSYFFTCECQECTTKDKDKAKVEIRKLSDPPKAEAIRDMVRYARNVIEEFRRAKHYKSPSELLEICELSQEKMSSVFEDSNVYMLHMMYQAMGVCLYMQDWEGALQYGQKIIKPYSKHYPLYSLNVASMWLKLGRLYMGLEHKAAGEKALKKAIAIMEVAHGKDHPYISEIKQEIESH
row,SMILES,IC50 [µM]
1,"CC(C)N1C[C@@H](NC(=O)c2cc(C3CC3)on2)C[C@H]1COCC#CC1CCCCC1 (racemic) [compound 239, (±)-cis-N-[5-{[(3-cyclo-hexylprop-2-yn-1-yl)oxy]methyl}-1-(propan-2-yl)pyrrolidin-3-yl]-5-cyclopropyl-1,2-oxazole-3-carboxamide]",> 50
2,"CC(C)N1C[C@@H](NC(=O)c2cc(C3CC3)on2)[C@@](C)(O)C1 (racemic) [compound 241, (±)-cis-5-cyclopropyl-N-[4-hydroxy-4-methyl-1-(propan-2-yl)pyrrolidin-3-yl]-1,2-oxazole-3-carboxamide]",24.8
3,"CC(C)N1C[C@H](C)[C@H](NC(=O)c2cc(C3CCC3)on2)C1 (racemic) [compound 248, (±)-cis-5-cyclobutyl-N-[4-methyl-1-(propan-2-yl)pyrrolidin-3-yl]-1,2-oxazole-3-carboxamide]",10.5
4,"CC(C)N1C[C@@H](C)[C@H](NC(=O)c2cc(C3CCC3)on2)C1 (racemic) [compound 249, (±)-trans-5-cyclobutyl-N-[4-methyl-1-(propan-2-yl)pyrrolidin-3-yl]-1,2-oxazole-3-carboxamide]",> 50
5,"CC(C)N1C[C@@H](C)[C@H](NC(=O)c2cc(C3(C)CC3)on2)C1 (racemic) [compound 250, (±)-trans-N-[4-methyl-1-(propan-2-yl)pyrrolidin-3-yl]-5-(1-methylcyclo-propyl)-1,2-oxazole-3-carboxamide]",> 50
6,"CN1C[C@@H](C(F)(F)F)[C@H](NC(=O)c2cc(C3CC3)on2)C1 (racemic) [compound 251, (±)-trans-5-cyclopropyl-N-[1-methyl-4-(trifluoro-methyl)pyrrolidin-3-yl]-1,2-oxazole-3-carboxamide]",> 50
7,"CC(C)N1C[C@@H](C(F)(F)F)[C@H](NC(=O)c2cc(C3CC3)on2)C1 (racemic) [compound 252, (±)-trans-5-cyclopropyl-N-[1-(propan-2-yl)-4-(trifluoromethyl)pyrrolidin-3-yl]-1,2-oxazole-3-carboxamide]",> 50
8,"C[C@@H]1CN(CCF)C[C@H]1NC(=O)c1cc(C2CC2)on1 (racemic) [compound 253, (±)-trans-5-cyclopropyl-N-[1-(2-fluoroethyl)-4-methylpyrrolidin-3-yl]-1,2-oxazole-3-carboxamide]",> 50
9,"C[C@H]1CN(CCF)C[C@H]1NC(=O)c1cc(C2CC2)on1 (racemic) [compound 254, (±)-cis-5-cyclopropyl-N-[1-(2-fluoroethyl)-4-methylpyrrolidin-3-yl]-1,2-oxazole-3-carboxamide]",5.72
10,"C[C@@H]1CN(CC2CCN(C(=O)OC(C)(C)C)CC2)C[C@H]1NC(=O)c1cc(C2CC2)on1 (racemic) [compound 255, (±)-trans-tert-butyl 4-{[3-(5-cyclopropyl-1,2-oxazole-3-amido)-4-methylpyrrolidin-1-yl]methyl}piperidine-1-carboxylate]",> 50
11,"C[C@@H]1CN(CC2CCNCC2)C[C@H]1NC(=O)c1cc(C2CC2)on1 (racemic) [compound 256, (±)-trans-5-cyclopropyl-N-[4-methyl-1-(piperidin-4-ylmethyl)pyrrolidin-3-yl]-1,2-oxazole-3-carboxamide]",> 50
12,"CN1C[C@H](NC(=O)c2cc(C3CC3)on2)[C@H](C(C)(C)C)C1 (racemic) [compound 257, (±)-cis-N-[4-tert-butyl-1-methylpyrrolidin-3-yl]-5-cyclopropyl-1,2-oxazole-3-carboxamide]",> 50
13,"CC(C)N1C[C@H](NC(=O)c2cc(C3CC3)on2)[C@H](C(C)(C)C)C1 (racemic) [compound 258, (±)-cis-N-[4-tert-butyl-1-(propan-2-yl)pyrrolidin-3-yl]-5-cyclopropyl-1,2-oxazole-3-carboxamide]",> 50
14,"CC(C)N1C[C@@H](C)[C@H](NC(=O)c2cc(C3(C)CCC3)on2)C1 (racemic) [compound 259, (±)-trans-N-[4-methyl-1-(propan-2-yl)pyrrolidin-3-yl]-5-(1-methylcyclobutyl)-1,2-oxazole-3-carboxamide]",> 50
15,"CC(C)N1C[C@H](C)[C@H](NC(=O)c2cc(C3(C)CCC3)on2)C1 (racemic) [compound 260, (±)-cis-N-[4-methyl-1-(propan-2-yl)pyrrolidin-3-yl]-5-(1-methyl-cyclobutyl)-1,2-oxazole-3-carboxamide]",> 50
16,"C[C@@H]1CN(CC(F)(F)F)C[C@H]1NC(=O)c1cc(C2CC2)on1 (racemic) [compound 261, (±)-trans-5-cyclopropyl-N-[4-methyl-1-(2,2,2-trifluoroethyl)pyrrolidin-3-yl]-1,2-oxazole-3-carboxamide]",> 50
17,"C[C@H]1CN(CC(F)(F)F)C[C@H]1NC(=O)c1cc(C2CC2)on1 (racemic) [compound 262, (±)-cis-5-cyclopropyl-N-[4-methyl-1-(2,2,2-trifluoroethyl)pyrrolidin-3-yl]-1,2-oxazole-3-carboxamide]",> 50
18,"C[C@H]1CN(CC(=O)N2CCN(C)CC2)C[C@H]1NC(=O)c1cc(C2CC2)on1 (racemic) [compound 263, (±)-cis-5-cyclopropyl-N-[4-methyl-1-[2-(4-methylpiperazin-1-yl)-2-oxoethyl]pyrrolidin-3-yl]-1,2-oxazole-3-carboxamide]",> 50
19,"C[C@H]1CN(CC(=O)N2CCCC2)C[C@H]1NC(=O)c1cc(C2CC2)on1 (racemic) [compound 264, (±)-cis-5-cyclopropyl-N-[4-methyl-1-[2-oxo-2-(pyrrolidin-1-yl)ethyl]pyrrolidin-3-yl]-1,2-oxazole-3-carboxamide]",> 50
20,"C[C@H]1CN(Cc2cccc3[nH]ncc23)C[C@H]1NC(=O)c1cc(C2CC2)on1 (racemic) [compound 265, (±)-cis-5-cyclopropyl-N-[1-(1H-indazol-4-ylmethyl)-4-methylpyrrolidin-3-yl]-1,2-oxazole-3-carboxamide]",4.89
21,"C[C@H]1CN(Cc2cccc3cccnc23)C[C@H]1NC(=O)c1cc(C2CC2)on1 (racemic) [compound 266, (±)-cis-5-cyclopropyl-N-[4-methyl-1-(quinolin-8-ylmethyl)pyrrolidin-3-yl]-1,2-oxazole-3-carboxamide]",12.3
22,"C[C@H]1CN(CC(=O)N(C)C)C[C@H]1NC(=O)c1cc(C2CC2)on1 (racemic) [compound 267, (±)-cis-5-cyclopropyl-N-[1-[(dimethyl-carbamoyl)methyl]-4-methylpyrrolidin-3-yl]-1,2-oxazole-3-carboxamide]",> 50
23,"Cc1cc(CN2C[C@H](C)[C@H](NC(=O)c3cc(C4CC4)on3)C2)oc1C (racemic) [compound 268, (±)-cis-5-cyclopropyl-N-{1-[(4,5-dimethyl-furan-2-yl)methyl]-4-methylpyrrolidin-3-yl]-1,2-oxazole-3-carboxamide]",5.3
24,"C[C@H]1CN(Cc2cc3ccccc3nc2Cl)C[C@H]1NC(=O)c1cc(C2CC2)on1 (racemic) [compound 269, (±)-cis-N-[1-[(2-chloro-quinolin-3-yl)methyl]-4-methylpyrrolidin-3-yl]-5-cyclopropyl-1,2-oxazole-3-carboxamide]",4.17
25,"C[C@H]1CN(CC(=O)N2CCOCC2)C[C@H]1NC(=O)c1cc(C2CC2)on1 (racemic) [compound 270, (±)-cis-5-cyclopropyl-N-[4-methyl-1-[2-(morpholin-4-yl)-2-oxoethyl]pyrrolidin-3-yl]-1,2-oxazole-3-carboxamide]",> 50
